Measured values: patent publication US20100029710A1, “COMPOUNDS HAVING BOTH ANGIOTENSIN II RECEPTOR ANTAGONISM AND PPARy ACTIVATING ACTIVITIES” (Pfizer Products Inc., priority 2006, published 2010)

Experiments:
[1] = biological target: T1, Human recombinant AT1 receptor (Homo sapiens, UniProt P30556); test: AT1 receptor radioligand binding (flashplate); details: 125I Sar1,Ile8-Angiotensin II radioligand
T1 construct: purchased
T1 sequence (P30556 1-359): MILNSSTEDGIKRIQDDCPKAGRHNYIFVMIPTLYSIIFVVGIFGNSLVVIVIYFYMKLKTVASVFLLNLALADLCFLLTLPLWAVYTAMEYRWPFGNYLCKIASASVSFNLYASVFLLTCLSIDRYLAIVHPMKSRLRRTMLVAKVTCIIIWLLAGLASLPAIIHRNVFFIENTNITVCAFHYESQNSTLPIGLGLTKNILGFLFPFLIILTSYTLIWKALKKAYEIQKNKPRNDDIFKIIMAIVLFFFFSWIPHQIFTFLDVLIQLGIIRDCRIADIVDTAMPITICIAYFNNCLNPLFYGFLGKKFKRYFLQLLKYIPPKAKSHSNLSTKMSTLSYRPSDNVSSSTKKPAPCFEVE
Procedure: Angiotensin II receptor antagonist activity may be determined using commercially available flashplates coated with the AT1 or AT2 receptor which provide a rapid and high throughput means to evaluate compounds compared to traditional filtration based assays (Regina M. Van Der Hee et al., Journal of Biomolecular Screening 10(2); 2005; 118-126).
AT1 receptor affinity was determined in a radioligand binding format using commercially available flashplate technology. Human recombinant AT1 receptor were coated on the wells of a 96 well flashplate and test compounds were diluted and added to wells at a final concentration range of 50 μM to 1 μM. Total binding was determined in the absence of compound and non-specific binding in the presence of 10 μM cold Angiotensin II. ^125I labeled Sar^1, Ile^8-Angiotensin II was added to all wells at Kd concentration and left for 2 hours at room temperature to equilibrate. Plates were read on a TopCount (Perkin Elmer) and concentration-response curves constructed using commercial curve fitting software. The Ki was determined via interpolation and the use of the Cheng-Prussof equation.

[2] = biological target: T2, human PPARγ LBD bound to Gal4 DBD (Homo sapiens, UniProt P37231); test: PPARγ transfection luciferase reporter assay in HepG2 cells; assay type: cell-based; details: for Emax: HepG2, 24 h, compared to full agonist response (standard TZD full agonist), read-out: PPARγ % activation; for EC50: HepG2, 24 hours exposure
T2 construct: expressed in transfected cells; host or cells: HepG2
T2 sequence (P37231 238-503 limits assumed): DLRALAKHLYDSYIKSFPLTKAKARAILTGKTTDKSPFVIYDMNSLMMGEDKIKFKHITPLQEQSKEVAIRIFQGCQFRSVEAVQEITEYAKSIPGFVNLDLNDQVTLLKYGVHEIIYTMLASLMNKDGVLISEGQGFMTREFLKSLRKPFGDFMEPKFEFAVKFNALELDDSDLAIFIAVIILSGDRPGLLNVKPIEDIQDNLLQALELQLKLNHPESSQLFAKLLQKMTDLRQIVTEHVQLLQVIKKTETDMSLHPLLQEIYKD
Procedure: PPARγ agonist activity may be determined by a cell line transiently transfected with PPARγ bound to a DNA binding domain that controls luciferase expression. The degree of receptor agonism is measured by the amount of luciferase activity after compound treatment. The ratio of treated cells over vehicle control cells provides a measure of fold activation and allows an EC50 (shown in tables I and II as […] EC50) and % activation to be calculated
A human hepatocellular carcinoma cell line (HepG2) was subcultured into dishes and transiently transfected with DNA to allow expression of human PPARγ LBD bound to Gal4 DBD. Luciferase reporter gene and β-galactosidase control genes were co-transfected to enable activity to be measured. After 24 hours, cells were exposed to compounds in the concentration range of 0.1 nM-100 μM and left for a further 24 hours. Luciferase activity is determined by luminometry and PPARγ activation is expressed as a ratio of luciferase activity to β-galactosidase activity to account for transfection efficiency. Potency is described by an EC50 defined as the concentration of compound producing receptor activation equivalent to 50% of the maximum for that compound (shown in Table I as transfection EC50). The maximum fold activation is a measure of efficacy and is expressed as a percentage of a reference full agonist run in the same assay. Efficacy is described by % activation of receptor relative to a standard thiazolidinedione (TZD) full agonist.

SMILES	IC50 [1]	Emax [2]	EC50 [2]
CCc1nc2c(C)cc(CCc3ccc(OC)cc3)nc2n1[C@H]1CCc2cc(-c3ccccc3-c3nnn[nH]3)ccc21 [Example 27, 3-((1S)-5-(2-(1H-tetrazol-5-yl)phenyl)-2,3-dihydro-1H-inden-1-yl)-5-(4-methoxyphenethyl)-2-ethyl-7-methyl-3H-imidazo[4,5-b]pyridine]	2 nM	21%	485 nM
CCc1nc2c(C)cc(CCCn3cccn3)nc2n1[C@H]1CCc2cc(-c3ccccc3-c3nnn[nH]3)ccc21 [Example 33, 5-(3-(1H-pyrazol-1-yl)propyl)-3-((1S)-5-(2-(1H-tetrazol-5-yl)phenyl)-2,3-dihydro-1H-inden-1-yl)-2-ethyl-7-methyl-3H-imidazo[4,5-b]pyridine]	2.1 nM	23%	400 nM
CCc1nc2c(C)cc(CCc3ccccc3C)nc2n1[C@H]1CCc2cc(-c3ccccc3-c3nnn[nH]3)ccc21 [Example 28, ((1S)-5-(2-(1H-tetrazol-5-yl)phenyl)-2,3-dihydro-1H-inden-1-yl)-5-(2-methylphenethyl)-2-ethyl-7-methyl-3H-imidazo[4,5-b]pyridine]	2.2 nM	15%	330 nM
CCc1nc2c(C)cc(Cn3cccn3)nc2n1[C@H]1CCc2cc(-c3ccccc3-c3nnn[nH]3)ccc21 [Example 6, 5-((1H-pyrazol-1-yl)methyl)-3-((1S)-5-(2-(1H-tetrazol-5-yl)phenyl)-2,3-dihydro-1H-inden-1-yl)-2-ethyl-7-methyl-3H-imidazo[4,5-b]pyridine]	10 nM	46%	275 nM
CCc1nc2c(C)cc(CC[C@H](C)O)nc2n1[C@H]1CCc2cc(-c3ccccc3-c3nnn[nH]3)ccc21 [Example 36, (S)-4-(3-((1S)-5-(2-(1H-tetrazol-5-yl)phenyl)-2,3-dihydro-1H-inden-1-yl)-2-ethyl-7-methyl-3H-imidazo[4,5-b]pyridin-5-yl)butan-2-ol]	1.2 nM	30%	215 nM
CCc1nc2c(C)cc(CCC3(O)CCOC3)nc2n1[C@H]1CCc2cc(-c3ccccc3-c3nnn[nH]3)ccc21 (stereo partly drawn) [Example 54, 3-(2-(3-((1S)-5-(2-(1H-tetrazol-5-yl)phenyl)-2,3-dihydro-1H-inden-1-yl)-2-ethyl-7-methyl-3H-imidazo[4,5-b]pyridin-5-yl)ethyl)-tetrahydrofuran-3-ol]	1 nM	26%	535 nM
CCc1nc2c(C)cc(CCC3(O)CCCC3)nc2n1[C@H]1CCc2cc(-c3ccccc3-c3nnn[nH]3)ccc21 [Example 42, 1-(2-(3-((1S)-5-(2-(1H-tetrazol-5-yl)phenyl)-2,3-dihydro-1H-inden-1-yl)-2-ethyl-7-methyl-3H-imidazo[4,5-b]pyridin-5-yl)ethyl)cyclopentanol]	1.1 nM	29%	155 nM
CCc1nc2c(C)cc(/C=C/COC)nc2n1[C@H]1CCc2cc(-c3ccccc3-c3nnn[nH]3)ccc21 [Example 23, 3-((1S)-5-(2-(1H-tetrazol-5-yl)phenyl)-2,3-dihydro-1H-inden-1-yl)-2-ethyl-5-((E)-3-methoxyprop-1-enyl)-7-methyl-3H-imidazo[4,5-b]pyridine]	4.8 nM	26%	220 nM
CCc1nc2c(C)cc(COC(C)(C)C)nc2n1[C@H]1CCc2cc(-c3ccccc3-c3nnn[nH]3)ccc21 [Example 5, 3-((1S)-5-(2-(1H-tetrazol-5-yl)phenyl)-2,3-dihydro-1H-inden-1-yl)-5-(tert-butoxymethyl)-2-ethyl-7-methyl-3H-imidazo[4,5-b]pyridine]	2.9 nM	48%	290 nM
CCc1nc2c(C)cc(CCc3ccccn3)nc2n1[C@H]1CCc2cc(-c3ccccc3-c3nnn[nH]3)ccc21 [Example 25, 3-((1S)-5-(2-(1H-tetrazol-5-yl)phenyl)-2,3-dihydro-1H-inden-1-yl)-2-ethyl-7-methyl-5-(2-(pyridin-2-yl)ethyl)-3H-imidazo[4,5-b]pyridine]	2.4 nM	26%	180 nM
CCc1nc2c(C)cc(CCCO)nc2n1[C@H]1CCc2cc(-c3ccccc3-c3nnn[nH]3)ccc21 [Example 47, 3-(3-((1S)-5-(2-(1H-tetrazol-5-yl)phenyl)-2,3-dihydro-1H-inden-1-yl)-2-ethyl-7-methyl-3H-imidazo[4,5-b]pyridin-5-yl)propan-1-ol]	1.3 nM	34%	550 nM
CCc1nc2c(C)cc(CC[C@@H](C)O)nc2n1[C@H]1CCc2cc(-c3ccccc3-c3nnn[nH]3)ccc21 (single isomer, unassigned) [Example 37]	0.5 nM	24%	270 nM
CCc1nc2c(C)cc(CC(O)C(C)C)nc2n1[C@H]1CCc2cc(-c3ccccc3-c3nnn[nH]3)ccc21 (stereo partly drawn) [Example 21, 1-(3-((1S)-5-(2-(1H-tetrazol-5-yl)phenyl)-2,3-dihydro-1H-inden-1-yl)-2-ethyl-7-methyl-3H-imidazo[4,5-b]pyridin-5-yl)-3-methylbutane-2-ol]	3.1 nM	23%	100 nM

Continued, values first:

IC50 [1]	Emax [2]	EC50 [2]	SMILES
5.1 nM	23%	110 nM	CCc1nc2c(C)cc(Cn3nc(C)cc3C)nc2n1[C@H]1CCc2cc(-c3ccccc3-c3nnn[nH]3)ccc21 [Example 67, 3-((1S)-5-(2-(1H-tetrazol-5-yl)phenyl)-2,3-dihydro-1H-inden-1-yl)-5-((3,5-dimethyl-1H-pyrazol-1-yl)methyl)-2-ethyl-7-methyl-3H-imidazo[4,5-b]pyridine]
6.5 nM	34%	45 nM	CCc1nc2c(C)cc(CCC(C)(O)C(C)(C)C)nc2n1[C@H]1CCc2cc(-c3ccccc3-c3nnn[nH]3)ccc21 (stereo partly drawn) [Example 68, 1-(3-((1S)-5-(2-(1H-tetrazol-5-yl)phenyl)-2,3-dihydro-1H-inden-1-yl)-2-ethyl-7-methyl-3H-imidazo[4,5-b]pyridin-5-yl)-3,4,4-trimethylpentan-3-ol]
3.8 nM	31%	200 nM	CCc1nc2c(C)cc(CCC3CCCCC3)nc2n1[C@H]1CCc2cc(-c3ccccc3-c3nnn[nH]3)ccc21 [Example 58, 3-((1S)-5-(2-(1H-tetrazol-5-yl)phenyl)-2,3-dihydro-1H-inden-1-yl)-5-(2-cyclohexylethyl)-2-ethyl-7-methyl-3H-imidazo[4,5-b]pyridine]
6 nM	22%	435 nM	CCc1nc2c(C)cc(Cn3nccn3)nc2n1[C@H]1CCc2cc(-c3ccccc3-c3nnn[nH]3)ccc21 [Example 66, 3-((1S)-5-(2-(1H-tetrazol-5-yl)phenyl)-2,3-dihydro-1H-inden-1-yl)-5-((2H-1,2,3-triazol-2-yl)methyl)-2-ethyl-7-methyl-3H-imidazo[4,5-b]pyridine]
1.9 nM	21%	95 nM	CCc1nc2c(C)cc(CC3CCCCC3O)nc2n1[C@H]1CCc2cc(-c3ccccc3-c3nnn[nH]3)ccc21 (single isomer, unassigned) [Example 64]
22 nM	21%	525 nM	CCc1nc2c(C)cc(C(=O)CC(C)C)nc2n1[C@H]1CCc2cc(-c3ccccc3-c3nnn[nH]3)ccc21 [Example 60, 1-(3-((1S)-5-(2-(1H-tetrazol-5-yl)phenyl)-2,3-dihydro-1H-inden-1-yl)-2-ethyl-7-methyl-3H-imidazo[4,5-b]pyridin-5-yl)-3-methylbutan-1-one]
